Measured values: ChEMBL document CHEMBL1201862, “PubChem BioAssay data set” (2004)
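These data come from cells grown in 96-well plates and exposed to compound for 48 hours at five concentrations. At the GI50, growth is halved.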 Active and inactive are the calls of the source. Rule as the data show it: active = GI50 up to about 1.1 µM and inactive = higher.

Key:
Experiment in all cases: NCI tumour cell line growth inhibition, 48 h
[1] = test system: RXF 393
[2] = test system: SK-MEL-5
[3] = test system: M19-MEL
[4] = test system: KM-20L2
[5] = test system: HL-60
[6] = test system: HCC 2998
[7] = test system: NCI-H226
[8] = test system: OVCAR-4
[9] = test system: TK-10
[10] = test system: CAKI-1
[11] = test system: UACC-62
[12] = test system: HOP-18
[13] = test system: SK-MEL-28
[14] = test system: LOX IMVI
[15] = test system: HOP-62
[16] = test system: HOP-92
[17] = test system: UACC-257
[18] = test system: UO-31
[19] = test system: SW-620
[20] = test system: OVCAR-8
[21] = test system: KM12
[22] = test system: NCI-H522
[23] = test system: A549
[24] = test system: MOLT-4
[25] = test system: XF498
[26] = test system: RPMI-8226
[27] = test system: A498
[28] = test system: K562
[29] = test system: SN12C
[30] = test system: COLO 205
[31] = test system: U-251
[32] = test system: SF-295
[33] = test system: OVCAR-3
[34] = test system: SR
[35] = test system: ACHN
[36] = test system: SF-268
[37] = test system: DLD-1
[38] = test system: NCI-H23
[39] = test system: IGROV-1
[40] = test system: SF-539
[41] = test system: HCT-116
[42] = test system: 786-0
[43] = test system: OVCAR-5
[44] = test system: HCT-15
[45] = test system: EKVX
[46] = test system: NCI-H460
[47] = test system: Malme-3M
[48] = test system: SNB-75
[49] = test system: SNB-19
[50] = test system: SK-OV-3
[51] = test system: LXFL 529
[52] = test system: HT-29
[53] = test system: DMS-273
[54] = test system: SNB-78
[55] = test system: M14
[56] = test system: CCRF-CEM
[57] = test system: SK-MEL-2
[58] = test system: DMS-114

In the case of `Cc1ccc(S(=O)OCC23CC4CC(CC(C4)C2)C3)cc1` (configuration not stated), the GI50 [1] is reported as > 100 µM (inactive), the GI50 [2] is reported as > 100 µM (inactive) and the GI50 [3] is reported as > 100 µM (inactive). For the same compound, the GI50 [4] was > 100 µM (inactive), the GI50 [5] was > 100 µM (inactive) and the GI50 [6] was > 100 µM (inactive). For the same compound, the GI50 [7] was > 100 µM (inactive), the GI50 [8] was > 100 µM (inactive) and the GI50 [9] was > 100 µM (inactive). For the same compound, the GI50 [10] was > 100 µM (inactive), the GI50 [11] was > 100 µM (inactive) and the GI50 [12] was > 100 µM (inactive). The GI50 [13] was > 100 µM (inactive), the GI50 [14] was > 100 µM (inactive) and the GI50 [15] was > 100 µM (inactive). For the same compound, the GI50 [16] was > 100 µM (inactive), the GI50 [17] was > 100 µM (inactive) and the GI50 [18] was 72.8 µM (inactive). The GI50 [19] was > 100 µM (inactive), the GI50 [20] was > 100 µM (inactive) and the GI50 [21] was > 100 µM (inactive). For the same compound, the GI50 [22] was > 100 µM (inactive), the GI50 [23] was > 100 µM (inactive) and the GI50 [24] was > 100 µM (inactive). The GI50 [25] was > 100 µM (inactive), the GI50 [26] was > 100 µM (inactive) and the GI50 [27] was > 100 µM (inactive). The GI50 [28] was > 100 µM (inactive), the GI50 [29] was > 100 µM (inactive) and the GI50 [30] was > 100 µM (inactive). The GI50 [31] was > 100 µM (inactive), the GI50 [32] was > 100 µM (inactive) and the GI50 [33] was > 100 µM (inactive). For the same compound, the GI50 [34] was > 100 µM (inactive), the GI50 [35] was > 100 µM (inactive) and the GI50 [36] was > 100 µM (inactive). The GI50 [37] was > 100 µM (inactive), the GI50 [38] was > 100 µM (inactive) and the GI50 [39] was > 100 µM (inactive). For the same compound, the GI50 [40] was > 100 µM (inactive), the GI50 [41] was > 100 µM (inactive) and the GI50 [42] was > 100 µM (inactive). The GI50 [43] was > 100 µM (inactive), the GI50 [44] was over 100 µM and the GI50 [45] was > 100 µM (inactive). For the same compound, the GI50 [46] was > 100 µM (inactive), the GI50 [47] was > 100 µM (inactive) and the GI50 [48] was > 100 µM (inactive). For the same compound, the GI50 [49] was > 100 µM (inactive), the GI50 [50] was > 100 µM (inactive) and the GI50 [51] was > 100 µM (inactive). For the same compound, the GI50 [52] was > 100 µM (inactive), the GI50 [53] was > 100 µM (inactive) and the GI50 [54] was > 100 µM (inactive). For the same compound, the GI50 [55] was > 100 µM (inactive).

In the case of `Cc1cc(Cl)ccc1NC(=O)C(=O)Cc1ccc([N+](=O)[O-])c([N+](=O)[O-])c1CC(=O)C(=O)Nc1ccc(Cl)cc1C`, the GI50 [1] is reported as > 100 µM (inactive), the GI50 [2] is reported as > 100 µM (inactive) and the GI50 [3] is reported as > 100 µM (inactive). For the same compound, the GI50 [4] was > 100 µM (inactive), the GI50 [5] was > 100 µM (inactive) and the GI50 [6] was > 100 µM (inactive). For the same compound, the GI50 [7] was > 100 µM (inactive), the GI50 [8] was > 100 µM (inactive) and the GI50 [9] was > 100 µM (inactive). The GI50 [10] was > 100 µM (inactive), the GI50 [11] was > 100 µM (inactive) and the GI50 [12] was > 100 µM (inactive). For the same compound, the GI50 [13] was > 100 µM (inactive), the GI50 [14] was > 100 µM (inactive) and the GI50 [15] was > 100 µM (inactive). The GI50 [16] was 82 µM (inactive), the GI50 [17] was > 100 µM (inactive) and the GI50 [18] was > 100 µM (inactive). For the same compound, the GI50 [19] was > 100 µM (inactive), the GI50 [20] was > 100 µM (inactive) and the GI50 [21] was > 100 µM (inactive). The GI50 [56] was 78.7 µM (inactive), the GI50 [22] was 99.1 µM (inactive) and the GI50 [23] was > 100 µM (inactive). The GI50 [24] was > 100 µM (inactive), the GI50 [25] was > 100 µM (inactive) and the GI50 [26] was > 100 µM (inactive). The GI50 [27] was > 100 µM (inactive), the GI50 [28] was > 100 µM (inactive) and the GI50 [29] was > 100 µM (inactive). The GI50 [30] was 61.1 µM (inactive), the GI50 [31] was > 100 µM (inactive) and the GI50 [32] was > 100 µM (inactive). For the same compound, the GI50 [33] was 70.3 µM (inactive), the GI50 [34] was 42.1 µM (inactive) and the GI50 [35] was > 100 µM (inactive). The GI50 [36] was > 100 µM (inactive), the GI50 [38] was > 100 µM (inactive) and the GI50 [39] was > 100 µM (inactive). The GI50 [57] was > 100 µM (inactive), the GI50 [40] was 35 µM (inactive) and the GI50 [41] was > 100 µM (inactive). For the same compound, the GI50 [42] was > 100 µM (inactive), the GI50 [43] was > 100 µM (inactive) and the GI50 [58] was 60.4 µM (inactive). The GI50 [44] was over 100 µM, the GI50 [45] was > 100 µM (inactive) and the GI50 [46] was > 100 µM (inactive). For the same compound, the GI50 [47] was > 100 µM (inactive), the GI50 [48] was > 100 µM (inactive) and the GI50 [49] was > 100 µM (inactive). The GI50 [50] was > 100 µM (inactive), the GI50 [51] was > 100 µM (inactive) and the GI50 [52] was > 100 µM (inactive). The GI50 [53] was > 100 µM (inactive), the GI50 [54] was > 100 µM (inactive) and the GI50 [55] was > 100 µM (inactive).
